Data reported in patent US20240018140A1, “MODIFIED IMIDAZOPYRIDINES AS GLUCOSYLCERAMIDE SYNTHASE INHIBITORS” (Merck Sharp & Dohme LLC, priority 2020, published 2024).

Each molecule was assayed against glucosylceramide synthase (GCS) (Homo sapiens (Human), UniProt Q16739) (assay: UDP-Glo glucosylceramide synthase biochemical assay). Details: endogenous GCS in Golgi preparations from human A375 malignant melanoma skin cells; C6 ceramide and UDP-glucose substrates; 20 h incubation; UDP detected by luminescence.
Chain of glucosylceramide synthase (GCS) (Q16739 whole entry): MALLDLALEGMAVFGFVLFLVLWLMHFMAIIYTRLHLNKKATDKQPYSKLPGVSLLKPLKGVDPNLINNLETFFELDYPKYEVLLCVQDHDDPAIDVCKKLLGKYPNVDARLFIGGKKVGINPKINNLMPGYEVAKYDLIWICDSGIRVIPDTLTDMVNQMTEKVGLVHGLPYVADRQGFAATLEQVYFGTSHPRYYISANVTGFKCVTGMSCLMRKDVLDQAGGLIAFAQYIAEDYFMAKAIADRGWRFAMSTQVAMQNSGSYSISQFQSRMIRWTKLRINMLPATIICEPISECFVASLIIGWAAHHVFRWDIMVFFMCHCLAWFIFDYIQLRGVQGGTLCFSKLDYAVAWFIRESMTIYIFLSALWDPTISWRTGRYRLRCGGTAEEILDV
Description: UDP-Glo™ Glucosylceramide Synthase Biochemical Assay
A UDP-Glo™ glucosylceramide synthase biochemical assay was utilized to evaluate the effect of test compounds on the activity of endogenous levels of GCS enzyme contained within Golgi preparations isolated from human A375 malignant melanoma skin cells. The UDP-Glo™ glucosylceramide synthase assay uses UDP-Glucose as a nucleotide-glycosyl donor and ceramide as substrate acceptor molecules. In the reaction, glucosylceramide synthase (GCS) transfers glucose from UDP-Glucose to ceramide. Glucosylceramide and UDP are released as products.
Using Promega's UDP-Glo™ Glycosyltransferase assay kit (Promega Corporation, Madison, WI, USA (Promega)), GCS activity was indirectly measured by detecting the amount of UDP produced. An aliquot of GCS enzyme (1.5 μg crude golgi preparation, total protein) and titrated test compound were aliquoted to each well and incubated for 30 minutes at room temperature. […] An equivalent volume of substrate mixture was then added to each well. Following a 20 h incubation at room temperature to allow for GCS turnover of substrate, an equal volume of UDP detection reagent (Promega) was added to each well and incubated for an additional 75 minutes at room temperature to simultaneously convert the accumulated UDP product into ATP and generate light in a luciferase reaction. The generated light was detected using a luminometer. […] luminescence values (RLUs) were normalized to mean “min” and “max” effects, as determined on each plate. “Min” was defined as the mean of the values of the wells treated with vehicle (DMSO) and which represent 0% inhibition; “max” was defined as the mean of the values of the wells treated with a reference inhibitor and which represent the 100% effect. Values for % Emax and EC50 were determined by best-fitting the normalized data to a curve in Activity Base along a four-parameter logistic nonlinear regression (4PL) model (based on the Levenberg-Marquardt algorithm and defined by the equation below): […]
where: n is 4PMin (bottom of the curve); m is 4PMax (top of the curve); i is IP (inflection point of curve); and p is slope. See Levenberg, K., “A Method for the Solution of Certain Problems in Least Squares”, Quart. Appl. Math. 2, (1944), pp 164-168 and Marquardt, D., “An Algorithm for Least Squares Estimation on Nonlinear Parameters”, SIAM J. Appl. Math. 11, (1963) pp 431-441.

First: O=C(N[C@H]1CCCOC1)c1cn2cc(C(F)(F)F)cc(-c3ccccc3OCC(F)(F)F)c2n1 [Compound 42, (S)-N-(tetrahydro-2H-pyran-3-yl)-8-(2-(2,2,2-trifluoroethoxy)phenyl)-6-(trifluoromethyl)imidazo[1,2-a]pyridine-2-carboxamide]
Second: O=C(c1cn2cc(C(F)(F)F)cc(-c3ccccc3OCC(F)(F)F)c2n1)N1CCOC2(COC2)C1 [Compound 51, (2,5-dioxa-8-azaspiro[3.5]nonan-8-yl)(8-(2-(2,2,2-trifluoroethoxy)phenyl)-6-(trifluoromethyl)imidazo[1,2-a]pyridin-2-yl)methanone]
The EC50 of the first is 4.9-fold higher: 2.5 nM for the first, 0.51 nM for the second.

First: COc1cc(-c2ccccc2OCC(F)(F)F)c2nc(C(=O)NC(C)(C)C(F)(F)F)cn2c1 [Compound 43, 6-methoxy-N-(1,1,1-trifluoro-2-methylpropan-2-yl)-8-(2-(2,2,2-trifluoroethoxy)phenyl)imidazo[1,2-a]pyridine-2-carboxamide]
Second: CC(C)(NC(=O)c1cn2cc(C#N)cc(-c3ccccc3OCC(F)(F)F)c2n1)C(F)(F)F [Compound 44, 6-cyano-N-(1,1,1-trifluoro-2-methylpropan-2-yl)-8-(2-(2,2,2-trifluoroethoxy)phenyl)imidazo[1,2-a]pyridine-2-carboxamide]
The EC50 of the first is 4-fold lower: 2.1 nM for the first, 8.3 nM for the second.

O=C(N[C@@H]1COC[C@@H]1F)c1cn2cc(Cl)cc(-c3ccccc3OCC(F)(F)F)c2n1 [Compound 45, 6-chloro-N-((3R,4R)-4-fluorotetrahydrofuran-3-yl)-8-(2-(2,2,2-trifluoroethoxy)phenyl)imidazo[1,2-a]pyridine-2-carboxamide] and O=C(N[C@H]1COC[C@@H]1F)c1cn2cc(Cl)cc(-c3ccccc3OCC(F)(F)F)c2n1 [Compound 46, 6-chloro-N-((3S,4R)-4-fluorotetrahydrofuran-3-yl)-8-(2-(2,2,2-trifluoroethoxy)phenyl)imidazo[1,2-a]pyridine-2-carboxamide] are within 1.5-fold of each other in EC50: 4.3 nM for the first, 4 nM for the second.

Going from O=C(NC12CC(CO)(C1)C2)c1cn2cccc(-c3ccccc3OCC(F)(F)F)c2n1 [Compound 47, N-(3-(hydroxymethyl)bicyclo[1.1.1]pentan-1-yl)-8-(2-(2,2,2-trifluoroethoxy)phenyl)imidazo[1,2-a]pyridine-2-carboxamide] to CC1(C)OCC1NC(=O)c1cn2cccc(-c3ccccc3OCC(F)(F)F)c2n1 (centres unmarked) [Compound 53, N-(2,2-dimethyloxetan-3-yl)-8-(2-(2,2,2-trifluoroethoxy)phenyl)imidazo[1,2-a]pyridine-2-carboxamide], the EC50 rises from 9.2 nM to 30 nM (3.3-fold).

First: O=C(c1cn2cccc(-c3ccccc3OCC(F)(F)F)c2n1)N1CC2CC1(CF)C2 [Compound 48, (1-(fluoromethyl)-2-azabicyclo[2.1.1]hexan-2-yl)(8-(2-(2,2,2-trifluoroethoxy)phenyl)imidazo[1,2-a]pyridin-2-yl)methanone]
Second: O=C(c1cn2cccc(-c3ccccc3OCC(F)(F)F)c2n1)N1CCn2ccnc2C1 [Compound 55, (5,6-dihydroimidazo[1,2-a]pyrazin-7(8H)-yl)(8-(2-(2,2,2-trifluoroethoxy)phenyl)imidazo[1,2-a]pyridin-2-yl)methanone]
The EC50 of the first is 1.6-fold higher: 4.5 nM for the first, 2.9 nM for the second.

First: CN1CC2(C1)CN(C(=O)c1cn3cccc(-c4ccccc4OCC(F)(F)F)c3n1)CCO2 [Compound 49, (2-methyl-5-oxa-2,8-diazaspiro[3.5]nonan-8-yl)(8-(2-(2,2,2-trifluoroethoxy)phenyl)imidazo[1,2-a]pyridin-2-yl)methanone]
Second: CN(CCN1CCCC1)C(=O)c1cn2cccc(-c3ccccc3OCC(F)(F)F)c2n1 [Compound 54, N-methyl-N-(2-(pyrrolidin-1-yl)ethyl)-8-(2-(2,2,2-trifluoroethoxy)phenyl)imidazo[1,2-a]pyridine-2-carboxamide]
The EC50 of the first is 6-fold higher: 18 nM for the first, 3 nM for the second.

Compared with O=C(NCc1ccccn1)c1cn2cccc(-c3ccccc3OCC(F)(F)F)c2n1 [Compound 52, N-(pyridin-2-ylmethyl)-8-(2-(2,2,2-trifluoroethoxy)phenyl)imidazo[1,2-a]pyridine-2-carboxamide], Cc1ccncc1NC(=O)c1cn2cccc(-c3ccccc3OCC(F)(F)F)c2n1 [Compound 56, N-(4-methylpyridin-3-yl)-8-(2-(2,2,2-trifluoroethoxy)phenyl)imidazo[1,2-a]pyridine-2-carboxamide] is 87-fold lower in EC50: 13 nM for the first, 0.15 nM for the second. The second is the more potent here.

Going from O=C(Nc1cnccc1F)c1cn2cccc(-c3ccccc3OCC(F)(F)F)c2n1 [Compound 57, N-(4-fluoropyridin-3-yl)-8-(2-(2,2,2-trifluoroethoxy)phenyl)imidazo[1,2-a]pyridine-2-carboxamide] to N#Cc1cnccc1NC(=O)c1cn2cccc(-c3ccccc3OCC(F)(F)F)c2n1 [Compound 59, N-(3-cyanopyridin-4-yl)-8-(2-(2,2,2-trifluoroethoxy)phenyl)imidazo[1,2-a]pyridine-2-carboxamide], the EC50 rises from 0.45 nM to 6 nM (13-fold).

First: O=C(Nc1ccc[n+]([O-])c1)c1cn2cccc(-c3ccccc3OCC(F)(F)F)c2n1 [Compound 58, 3-(8-(2-(2,2,2-trifluoroethoxy)phenyl)imidazo[1,2-a]pyridine-2-carboxamido)pyridine-1-oxide]
Second: O=C(Nc1cccnc1)c1cn2cc(F)cc(-c3ccccc3OCC(F)(F)F)c2n1 [Compound 61, 6-fluoro-N-(pyridin-3-yl)-8-(2-(2,2,2-trifluoroethoxy)phenyl)imidazo[1,2-a]pyridine-2-carboxamide]
The EC50 of the first is 340-fold higher: 28 nM for the first, 0.083 nM for the second.

Compared with O=C(c1cn2cc(Cl)cc(-c3ccccc3OCC(F)(F)F)c2n1)N1C[C@H]2C(CO)[C@@H]2C1 (stereo partly drawn) [Compound 60, (6-chloro-8-(2-(2,2,2-trifluoroethoxy)phenyl)imidazo[1,2-a]pyridin-2-yl)((1R,5R)-6-(hydroxymethyl)-3-azabicyclo[3.1.0]hexan-3-yl)methanone], OC(c1cn2cc(Cl)cc(-c3ccccc3OCC(F)(F)F)c2n1)C1CC1 (centres unmarked) [Compound 65, [6-chloro-8-[2-(2,2,2-trifluoroethoxy)phenyl]imidazo[1,2-a]pyridin-2-yl]-cyclopropyl-methanol] is 23-fold lower in EC50: 30 nM for the first, 1.3 nM for the second.

OCc1cn2cc(C(F)(F)F)cc(-c3ccccc3OCC(F)(F)F)c2n1 [Compound 62, (8-(2-(2,2,2-trifluoroethoxy)phenyl)-6-(trifluoromethyl)imidazo[1,2-a]pyridin-2-yl)methanol] and CC(C)(O)c1cn2cc(Cl)cc(-c3ccccc3OCC(F)(F)F)c2n1 [Compound 66, 2-(6-chloro-8-(2-(2,2,2-trifluoroethoxy)phenyl)imidazo[1,2-a]pyridin-2-yl)propan-2-ol] are within 1.5-fold of each other in EC50: 17 nM for the first, 15 nM for the second.

CC(O)c1cn2cc(Cl)cc(-c3ccccc3OCC(F)(F)F)c2n1 (centres unmarked) [Compound 64, 1-[6-chloro-8-[2-(2,2,2-trifluoroethoxy)phenyl]imidazo[1,2-a]pyridin-2-yl]ethanol] and CC1(C)CN=C(c2cn3cc(Cl)cc(-c4ccccc4OCC(F)(F)F)c3n2)O1 [Compound 69, 2-(6-chloro-8-(2-(2,2,2-trifluoroethoxy)phenyl)imidazo[1,2-a]pyridin-2-yl)-5,5-dimethyl-4,5-dihydrooxazole] are within 1.5-fold of each other in EC50: 13 nM for the first, 15 nM for the second.

First: CC(C)(O)c1cn2cc(Cl)cc(-c3ccc(F)cc3OCC(F)(F)F)c2n1 [Compound 67, 2-(6-chloro-8-(4-fluoro-2-(2,2,2-trifluoroethoxy)phenyl)imidazo[1,2-a]pyridin-2-yl) propan-2-ol]
Second: CC1(CO)CN=C(c2cn3cc(Cl)cc(-c4ccccc4OCC(F)(F)F)c3n2)O1 (centres unmarked) [Compound 71, (2-(6-chloro-8-(2-(2,2,2-trifluoroethoxy)phenyl)imidazo[1,2-a]pyridin-2-yl)-5-methyl-4,5-dihydrooxazol-5-yl)methanol]
The EC50 of the first is 4.2-fold higher: 67 nM for the first, 16 nM for the second.

OC(c1cn2cc(F)cc(-c3ccccc3OCC(F)(F)F)c2n1)C1CCOCC1 (centres unmarked) [Compound 68, (6-fluoro-8-(2-(2,2,2-trifluoroethoxy)phenyl)imidazo[1,2-a]pyridin-2-yl)(tetrahydro-2H-pyran-4-yl)methanol] and OCC1COC(c2cn3cc(Cl)cc(-c4ccccc4OCC(F)(F)F)c3n2)=N1 (centres unmarked) [Compound 72, [2-[6-chloro-8-[2-(2,2,2-trifluoroethoxy)phenyl]imidazo[1,2-a]pyridin-2-yl]-4,5-dihydrooxazol-4-yl]methanol] are within 1.5-fold of each other in EC50: 10 nM for the first, 7.9 nM for the second.

Work on CN1CC2(CN=C(c3cn4cc(Cl)cc(-c5ccccc5OCC(F)(F)F)c4n3)O2)C1 [Compound 70, 6-[6-chloro-8-[2-(2,2,2-trifluoroethoxy)phenyl]imidazo[1,2-a]pyridin-2-yl]-2-methyl-5-oxa-2,7-diazaspiro[3.4]oct-6-ene] yielded an EC50 of 0.061 nM.
